Laboratory results reported in paper PMC8634709, “Neuroprotective Potential of Tamarillo (Cyphomandra betacea) Epicarp Extracts Obtained by Sustainable Extraction Process” (Frontiers in Nutrition, 2021).
Marks after values point to notes of the source that are not given here.

What was measured:
Conditions in all cases: mean ± SD (n = 3)
[1] = ABTS radical scavenging assay
Experimental: ABTS^·+ radical scavenging assay was performed according to Re et al. ([32]), with modifications. TE at six different concentrations of each sample [from 2.9 to 29 μg/ml EtOH/H2O (1:1, v/v)] was used, giving a linear response between 20 and 80% of the control absorbance. All the measurements were performed in triplicate. Equation (3) represents the percentage of ABTS^·+ inhibition due to TE extracts and Trolox compared with the ABTS control.
(3) %Inh=AABTS control−(Asample−Asample blank)/AABTS control x 100
where A ABTScontrol is absorbance of radical at t = 0 min; Asample, represents the mean of absorbance readings of TE samples, and ASampleblank is the absorbance of the sample without ABTS. The capacity of free radical scavenging was expressed by IC50 value, and the results represent the mean inhibitory concentration (in μg/ml) of TE against ABTS^·+ radical.

[2] = RNS scavenging capacity (NO radical scavenging, Griess reaction)
Experimental: Reactive nitrogen species scavenging capacity was measured following the NO^· radical scavenging assay according to Ho et al. ([34]) and based on the Griess reaction. […] Each measurement was carried out in triplicate, and ascorbic acid and rosemary extract were used as chemical and natural positive controls, respectively. The NO scavenging capacity of the extract was expressed through inhibition % calculated as described in Equation (3).

[3] = ROS scavenging capacity (ORAC method)
Experimental: In this case, a concentration range of extract from 0.62 to 6.2 μg/ml in EtOH/H2O (1:9, v/v) was measured. […] The measurements were carried out in triplicate.
(4) %Inh=AUCControl−AUCsample/AUCcontrol x 100
AUC was calculated by means of Equation (5).
where f0 and fi are fluorescence at t = 0 and every 5 min, respectively.

| SMILES | ABTS IC50 [1] | RNS IC50 [2] | ROS (ORAC) IC50 [3] |
| --- | --- | --- | --- |
| O=C1O[C@H]([C@@H](O)CO)C(O)=C1O [Ascorbic acid] | 25.000 ± 0.30^f μg/mL extract | 1100.901 ± 3.96^c μg/ml |  |
| Cc1c(C)c2c(c(C)c1O)CCC(C)(C(=O)O)O2 (racemic) [Trolox, (±)-6-hydroxy-2,5,7,8-tetramethylchromane-2-carboxylic acid] | 2.500 ± 0.02^a μg/mL extract |  | 1.290 ± 0.09^a μg/ml |
